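Each compound was tested at five concentrations against cells in 96-well plates for 48 hours. GI50 is the concentration that inhibits growth by half. At the TGI there is no net growth.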
The compounds below were run on MDA-MB-231 breast (assay: NCI-60 cell line screen, 48 h).

| SMILES | GI50 | TGI |
| --- | --- | --- |
| c1ccc(Sc2ncnc3ccccc23)cc1 | 13.5 µM | 49.9 µM |
| CCN(C(=O)N1CCN(c2cc3c(cc2F)c(=O)c(C(=O)O)cn3C2CC2)CC1)c1nc(-c2ccc(Cl)cc2)cs1 | 1.69 µM | 6.35 µM |
| CC(C)=CCC(O)C1=CC(=O)c2c(O)ccc(O)c2C1=O (stereo not given) |  | 4.71 µM |

The compounds below were run on SK-MEL-2 melanoma (assay: NCI-60 cell line screen, 48 h).

| SMILES | GI50 | TGI |
| --- | --- | --- |
| Cc1cc(I)cc(CN(CCCN(C)C)C(C)C)c1O | 18.2 µM | 35.7 µM |
| c1ccc(Sc2ncnc3ccccc23)cc1 | 22.6 µM | 63 µM |
| CCN(C(=O)N1CCN(c2cc3c(cc2F)c(=O)c(C(=O)O)cn3C2CC2)CC1)c1nc(-c2ccc(Cl)cc2)cs1 | 2.12 µM | 5.39 µM |
| CC(C)=CCC(O)C1=CC(=O)c2c(O)ccc(O)c2C1=O (stereo not given) |  | 3.83 µM |

These compounds were tested on LOX IMVI melanoma (assay: NCI-60 cell line screen, 48 h).

| SMILES | GI50 | TGI |
| --- | --- | --- |
| Cc1cc(I)cc(CN(CCCN(C)C)C(C)C)c1O | 15 µM | 28.6 µM |
| c1ccc(Sc2ncnc3ccccc23)cc1 | 6.27 µM | 19.8 µM |
| CCN(C(=O)N1CCN(c2cc3c(cc2F)c(=O)c(C(=O)O)cn3C2CC2)CC1)c1nc(-c2ccc(Cl)cc2)cs1 | 0.37 µM | 1.63 µM |
| CC(C)=CCC(O)C1=CC(=O)c2c(O)ccc(O)c2C1=O (stereo not given) |  | 2.63 µM |

What follows are compounds tested on HOP-62 NSCLC (assay: NCI-60 cell line screen, 48 h).

| SMILES | GI50 | TGI |
| --- | --- | --- |
| Cc1cc(I)cc(CN(CCCN(C)C)C(C)C)c1O | 16.1 µM | 30.6 µM |
| c1ccc(Sc2ncnc3ccccc23)cc1 | 16.3 µM | 40.5 µM |
| CCN(C(=O)N1CCN(c2cc3c(cc2F)c(=O)c(C(=O)O)cn3C2CC2)CC1)c1nc(-c2ccc(Cl)cc2)cs1 | 1.6 µM | 17.7 µM |
| CC(C)=CCC(O)C1=CC(=O)c2c(O)ccc(O)c2C1=O (stereo not given) |  | 4.95 µM |

These compounds were tested on RPMI-8226 leukemia (assay: NCI-60 cell line screen, 48 h).

| SMILES | GI50 | TGI |
| --- | --- | --- |
| Cc1cc(I)cc(CN(CCCN(C)C)C(C)C)c1O | 11.5 µM | 26.7 µM |
| c1ccc(Sc2ncnc3ccccc23)cc1 | 9.49 µM | 37.6 µM |
| CCN(C(=O)N1CCN(c2cc3c(cc2F)c(=O)c(C(=O)O)cn3C2CC2)CC1)c1nc(-c2ccc(Cl)cc2)cs1 | 0.838 µM | 3.17 µM |

What follows are compounds tested on A549 NSCLC (assay: NCI-60 cell line screen, 48 h).

| SMILES | GI50 | TGI |
| --- | --- | --- |
| Cc1cc(I)cc(CN(CCCN(C)C)C(C)C)c1O | 18.2 µM | 39.6 µM |
| c1ccc(Sc2ncnc3ccccc23)cc1 | 18.1 µM | 68.3 µM |
| CCN(C(=O)N1CCN(c2cc3c(cc2F)c(=O)c(C(=O)O)cn3C2CC2)CC1)c1nc(-c2ccc(Cl)cc2)cs1 | 1.01 µM | > 100 µM |
| CC(C)=CCC(O)C1=CC(=O)c2c(O)ccc(O)c2C1=O (stereo not given) |  | 17.7 µM |

Each compound was assayed on RXF 393 renal (assay: NCI-60 cell line screen, 48 h).

| SMILES | GI50 | TGI |
| --- | --- | --- |
| Cc1cc(I)cc(CN(CCCN(C)C)C(C)C)c1O | 16 µM | 46.8 µM |
| c1ccc(Sc2ncnc3ccccc23)cc1 | 13.4 µM | 27.1 µM |
| CCN(C(=O)N1CCN(c2cc3c(cc2F)c(=O)c(C(=O)O)cn3C2CC2)CC1)c1nc(-c2ccc(Cl)cc2)cs1 | 0.978 µM | 7.51 µM |
| CC(C)=CCC(O)C1=CC(=O)c2c(O)ccc(O)c2C1=O (stereo not given) |  | 2.11 µM |

These compounds were tested on SF-295 CNS (assay: NCI-60 cell line screen, 48 h).

| SMILES | GI50 | TGI |
| --- | --- | --- |
| c1ccc(Sc2ncnc3ccccc23)cc1 | 14.2 µM | 45.6 µM |
| CCN(C(=O)N1CCN(c2cc3c(cc2F)c(=O)c(C(=O)O)cn3C2CC2)CC1)c1nc(-c2ccc(Cl)cc2)cs1 | 0.888 µM | 6 µM |
| CC(C)=CCC(O)C1=CC(=O)c2c(O)ccc(O)c2C1=O (stereo not given) |  | 9.3 µM |

What follows are compounds tested on HCC-2998 colon (assay: NCI-60 cell line screen, 48 h).

| SMILES | GI50 | TGI |
| --- | --- | --- |
| Cc1cc(I)cc(CN(CCCN(C)C)C(C)C)c1O | 16.5 µM | 30.6 µM |
| c1ccc(Sc2ncnc3ccccc23)cc1 | 15.4 µM | 28.7 µM |
| CCN(C(=O)N1CCN(c2cc3c(cc2F)c(=O)c(C(=O)O)cn3C2CC2)CC1)c1nc(-c2ccc(Cl)cc2)cs1 | 2.83 µM | > 28.6 µM |
| CC(C)=CCC(O)C1=CC(=O)c2c(O)ccc(O)c2C1=O (stereo not given) |  | 3.68 µM |

Each compound was assayed on NCI-H460 lung (assay: NCI-60 cell line screen, 48 h).

| SMILES | GI50 | TGI |
| --- | --- | --- |
| Cc1cc(I)cc(CN(CCCN(C)C)C(C)C)c1O | 15.9 µM | 29.8 µM |
| c1ccc(Sc2ncnc3ccccc23)cc1 | 24.2 µM | > 100 µM |
| CCN(C(=O)N1CCN(c2cc3c(cc2F)c(=O)c(C(=O)O)cn3C2CC2)CC1)c1nc(-c2ccc(Cl)cc2)cs1 | 0.96 µM | > 100 µM |
| CC(C)=CCC(O)C1=CC(=O)c2c(O)ccc(O)c2C1=O (stereo not given) |  | 7.78 µM |

Each compound was assayed on PC-3 prostate (assay: NCI-60 cell line screen, 48 h).

| SMILES | GI50 | TGI |
| --- | --- | --- |
| Cc1cc(I)cc(CN(CCCN(C)C)C(C)C)c1O | 14 µM | 30.4 µM |
| c1ccc(Sc2ncnc3ccccc23)cc1 | 12.3 µM | 60 µM |
| CCN(C(=O)N1CCN(c2cc3c(cc2F)c(=O)c(C(=O)O)cn3C2CC2)CC1)c1nc(-c2ccc(Cl)cc2)cs1 | 0.858 µM | > 26 µM |
| CC(C)=CCC(O)C1=CC(=O)c2c(O)ccc(O)c2C1=O (stereo not given) |  | 5.17 µM |

Each compound was assayed on EKVX NSCLC (assay: NCI-60 cell line screen, 48 h).

| SMILES | GI50 | TGI |
| --- | --- | --- |
| Cc1cc(I)cc(CN(CCCN(C)C)C(C)C)c1O | 18.3 µM | 42.9 µM |
| c1ccc(Sc2ncnc3ccccc23)cc1 | 10.6 µM | 25.1 µM |
| CCN(C(=O)N1CCN(c2cc3c(cc2F)c(=O)c(C(=O)O)cn3C2CC2)CC1)c1nc(-c2ccc(Cl)cc2)cs1 | 2.54 µM | > 100 µM |
| CC(C)=CCC(O)C1=CC(=O)c2c(O)ccc(O)c2C1=O (stereo not given) |  | 3.02 µM |

These compounds were tested on MDA-MB-435 (assay: NCI-60 cell line screen, 48 h).

| SMILES | GI50 | TGI |
| --- | --- | --- |
| Cc1cc(I)cc(CN(CCCN(C)C)C(C)C)c1O | 17.3 µM | 35.9 µM |
| c1ccc(Sc2ncnc3ccccc23)cc1 | 8.19 µM | 32.5 µM |
| CCN(C(=O)N1CCN(c2cc3c(cc2F)c(=O)c(C(=O)O)cn3C2CC2)CC1)c1nc(-c2ccc(Cl)cc2)cs1 | 1.21 µM | 7.03 µM |
| CC(C)=CCC(O)C1=CC(=O)c2c(O)ccc(O)c2C1=O (stereo not given) |  | 2.82 µM |

The compounds below were run on NCI-H23 lung (assay: NCI-60 cell line screen, 48 h).

| SMILES | GI50 | TGI |
| --- | --- | --- |
| Cc1cc(I)cc(CN(CCCN(C)C)C(C)C)c1O | 31.4 µM | > 100 µM |
| c1ccc(Sc2ncnc3ccccc23)cc1 | 8.52 µM | 25.7 µM |
| CCN(C(=O)N1CCN(c2cc3c(cc2F)c(=O)c(C(=O)O)cn3C2CC2)CC1)c1nc(-c2ccc(Cl)cc2)cs1 | 1.56 µM | 8.45 µM |
| CC(C)=CCC(O)C1=CC(=O)c2c(O)ccc(O)c2C1=O (stereo not given) |  | 2.66 µM |

Each compound was assayed on OVCAR-4 ovarian (assay: NCI-60 cell line screen, 48 h).

| SMILES | GI50 | TGI |
| --- | --- | --- |
| Cc1cc(I)cc(CN(CCCN(C)C)C(C)C)c1O | 37.2 µM | > 100 µM |
| c1ccc(Sc2ncnc3ccccc23)cc1 | 8.05 µM | > 100 µM |
| CCN(C(=O)N1CCN(c2cc3c(cc2F)c(=O)c(C(=O)O)cn3C2CC2)CC1)c1nc(-c2ccc(Cl)cc2)cs1 | 1.48 µM | > 57.1 µM |
| CC(C)=CCC(O)C1=CC(=O)c2c(O)ccc(O)c2C1=O (stereo not given) |  | 4.84 µM |
